Data taken from US9494594B2, “Method of determining administration effect in cancer chemotherapy with S-1” (National University Corporation Chiba University, priority 2012, dated 2016).

Tested on: shDCN cell line and Mock cell line of anticancer drug-resistant cell lines Sa-3R and KB-R
Test: 5-FU sensitivity test, MTS cell survival assay
Format: cell-based
Conditions: 72 hours incubation, shDCN vs Mock cell line
Experimental: Next, the shDCN cell line and the Mock cell line were cultured in the presence of an anticancer drug, and a change in the degree of resistance to the anticancer drug by the suppressed expression of DCN was verified by measuring a change in cell growth ability. 5-FU was used as the anticancer drug.
The shDCN cell line and the Mock cell line were each seeded to a 96-well plate at a density of 2×10^3 cells/100 μl of medium/well, and simultaneously mixed with 10 μl of a medium supplemented with 5-FU. The concentration of 5-FU was adjusted so that the final concentration was 1 μM to 1×10^4 μM. After that, the cells were incubated for 72 hours, and a cell survival rate was evaluated by an MTS assay. An MTS solution (product of Promega Corporation) was added at a volume of 10 μl/well, and the cells were incubated for 4 hours. After that, counting was performed with a plate reader at a wavelength of 490 nm. A 50% survival concentration (IC50) was determined based on the results of, the MTS assay.

SMILES: O=c1[nH]cc(F)c(=O)[nH]1 [5-FU, 5-fluorouracil]
- IC50 value of shDCN cell line relative to Mock cell line (increase in sensitivity to 5-FU): about 10 times lower
